From patent publication US20240252488A1 (KOREA RESEARCH INSTITUTE OF CHEMICAL TECHNOLOGY, priority 2020, published 2024) come the findings set out here.

The target of experiment [1] is T1, MLKL (Homo sapiens, UniProt Q8NB16).
T1 sequence (Q8NB16 1-471): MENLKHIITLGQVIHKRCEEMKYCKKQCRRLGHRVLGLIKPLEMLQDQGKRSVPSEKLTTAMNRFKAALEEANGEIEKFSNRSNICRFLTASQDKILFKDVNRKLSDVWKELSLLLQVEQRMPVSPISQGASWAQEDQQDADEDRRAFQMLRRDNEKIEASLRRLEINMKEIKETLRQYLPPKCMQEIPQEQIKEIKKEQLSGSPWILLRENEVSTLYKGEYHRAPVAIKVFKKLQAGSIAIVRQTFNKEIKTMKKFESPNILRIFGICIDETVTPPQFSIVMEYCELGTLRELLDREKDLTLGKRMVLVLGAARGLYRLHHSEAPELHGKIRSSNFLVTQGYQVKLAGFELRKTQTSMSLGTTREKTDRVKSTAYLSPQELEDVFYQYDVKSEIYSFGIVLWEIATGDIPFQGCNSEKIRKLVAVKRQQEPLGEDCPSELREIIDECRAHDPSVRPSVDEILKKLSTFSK
Nature of the experiment: MLKL degradation assay in HepG2 cell line (western blot). The format is cell-based. More on the design: endogenous in cells; host or cells: HepG2 or HaCaT. The following applies: cell line not given; for Degradation assay (Degradation %) 1 μM: compound 1 μM; for Degradation assay (Degradation %) 10 μM: compound 10 μM. The procedure, abridged: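 Western blot chemiluminescence of MLKL in equal-protein lysates (10-15 μg, BCA-adjusted). Before lysis, HepG2 cells were exposed to 1 or 10 μM (final) test compound for 20-24 h at 37 °C.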

Experiment [2] relates to FADD−/− Jurkat cells. Nature of the experiment: Necroptosis inhibition assay, TNF-α-induced necroptosis (CellTiter-Glo 2.0). It is filed as cell-based, human. To be noted: TNF-α 15 ng/mL; for Necroptosis inhibition assay (Rescue %) 1 μM: compound 1 μM; for Necroptosis inhibition assay (Rescue %) 10 μM: compound 10 μM. Put shortly:
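Necroptosis induced by 15 ng/mL TNF-α (final) for 20–24 h at 37 °C, after a 30 min room-temperature pretreatment of FADD-deficient Jurkat cells with 0.1, 1 or 10 μM compound. ATP-based luminescence gave viability, from which inhibition rate and cytotoxicity were derived.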
Background: ATP-based viability assays read luminescence as a measure of living cells.

Experiment [3] has as its target T1, MLKL. The experiment is described as follows: Measurement of binding affinity with MLKL receptor (competitive binding assay, Kd). The arrangement: made in house; host or cells: HEK 293 cell line (T7 phage in E. coli BL21-derived host is also described). The procedure, abridged: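 MLKL was produced in HEK 293 cells and tagged with DNA for detection. Liganded beads were blocked with excess biotin and washed to cut non-specific binding, then compounds (111× DMSO stocks, 0.9% DMSO in assay) competed for binding. Eluate kinase was measured by qPCR for Kd.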

As a reminder, the Kd is the free concentration of one partner at which half of the binding sites on the other are occupied at equilibrium, for simple one-to-one binding. With `Nc1ncc(-c2cnn(C3CCN(C4CC5(CCN(CC6CCN(C(=O)c7cccc(C(=O)NC8CCC(=O)NC8=O)c7)CC6)CC5)C4)CC3)c2)nc1C(=O)O[C@@H](C(=O)Nc1ccc(F)cc1)c1ccccc1` (stereo partly drawn) [TDH-544, (R)-2-((4-fluorophenyl)amino)-2-oxo-1-phenylethyl 3-amino-6-(1-(1-(7-((1-(3-((2,6-dioxopiperidin-3-yl)carbamoyl)benzoyl)piperidin-4-yl)methyl)-7-azaspiro[3.5]nonan-2-yl)piperidin-4-yl)-1H-pyrazol-4-yl)pyrazine-2-carboxylate], in experiment [1], the “Degradation assay (Degradation %) 1 μM” value is recorded as 69.45% and the “Degradation assay (Degradation %) 10 μM” value was determined as 82.68%. In experiment [2] (FADD−/− Jurkat cells), the “Necroptosis inhibition assay (Rescue %) 1 μM” value was 35.33% and the “Necroptosis inhibition assay (Rescue %) 10 μM” value was determined as 31.42%. Besides, in experiment [3], the Kd came out at 0.5 nM.
Consider `Nc1ncc(-c2cnn(C3CCN(CCC4CCN(c5cc6c(cc5F)C(=O)N(C5CCC(=O)NC5=O)C6=O)CC4)CC3)c2)nc1C(=O)O[C@@H](C(=O)Nc1ccc(F)cc1)c1ccccc1` (stereo partly drawn) [TDH-520, (R)-2-((4-fluorophenyl)amino)-2-oxo-1-phenylethyl 3-amino-6-(1-(1-(2-(1-(2-(2,6-dioxopiperidin-3-yl)-6-fluoro-1,3-dioxoisoindolin-5-yl)piperidin-4-yl)ethyl)piperidin-4-yl)-1H-pyrazol-4-yl)pyrazine-2-carboxylate], for which, in experiment [1], the “Degradation assay (Degradation %) 1 μM” value stood at 92.44% and the “Degradation assay (Degradation %) 10 μM” value came out at 94.32%. Further, in experiment [2] (FADD−/− Jurkat cells), the “Necroptosis inhibition assay (Rescue %) 1 μM” value is 63.56% and the “Necroptosis inhibition assay (Rescue %) 10 μM” value is on record as 36.11%. For the same molecule, the affinity in experiment [3], expressed as Kd, was 19 nM.
Turning to `Nc1ncc(-c2cnn(C3CCN(C(=O)COCCOCCNC(=O)C4CCN(c5cccc6c5C(=O)N(C5CCC(=O)NC5=O)C6=O)CC4)CC3)c2)nc1C(=O)O[C@@H](C(=O)Nc1ccc(F)cc1)c1ccccc1` (stereo partly drawn) [TDH-194, (R)-2-((4-fluorophenyl)amino)-2-oxo-1-phenylethyl 3-amino-6-(1-(1-(2-(2-(2-(1-(2-(2,6-dioxopiperidin-3-yl)-1,3-dioxoisoindolin-4-yl)piperidine-4-carboxamido)ethoxy)ethoxy)acetyl)piperidin-4-yl)-1H-pyrazol-4-yl)pyrazine-2-carboxylate], in experiment [1], the “Degradation assay (Degradation %) 1 μM” value was found to be 33.12% and the “Degradation assay (Degradation %) 10 μM” value is 18.24%. In addition, in experiment [2], the “Necroptosis inhibition assay (Rescue %) 1 μM” value is given as 67.94% and the “Necroptosis inhibition assay (Rescue %) 10 μM” value came out at 58.3%. The affinity in experiment [3], expressed as Kd, was 6.7 nM.
On to `Nc1ncc(-c2cnn(C3CCN(C(=O)C4CCN(C(=O)CCc5cccc6c5C(=O)N(C5CCC(=O)NC5=O)C6=O)CC4)CC3)c2)nc1C(=O)O[C@@H](C(=O)Nc1ccc(F)cc1)c1ccccc1` (stereo partly drawn) [TDH-380, (R)-2-((4-fluorophenyl)amino)-2-oxo-1-phenylethyl 3-amino-6-(1-(1-(1-(3-(2-(2,6-dioxopiperidin-3-yl)-1,3-dioxoisoindolin-4-yl)propanoyl)piperidine-4-carbonyl)piperidin-4-yl)-1H-pyrazol-4-yl)pyrazine-2-carboxylate], for which, in experiment [1], the “Degradation assay (Degradation %) 1 μM” value was determined as 86.88% and the “Degradation assay (Degradation %) 10 μM” value stood at 95.41%. Moreover, in experiment [2], the “Necroptosis inhibition assay (Rescue %) 1 μM” value came out at 38.37% and the “Necroptosis inhibition assay (Rescue %) 10 μM” value amounted to 35.96%. Moreover, the Kd in experiment [3] came to 1.5 nM.
For the molecule `Nc1ncc(-c2cnn(C3CCN(C(=O)CC4CCN(C(=O)C5CN(c6ccc7c(c6)C(=O)N(C6CCC(=O)NC6=O)C7=O)C5)CC4)CC3)c2)nc1C(=O)O[C@@H](C(=O)Nc1ccc(F)cc1)c1ccccc1` (stereo partly drawn) [TDH-401, (R)-2-((4-fluorophenyl)amino)-2-oxo-1-phenylethyl 3-amino-6-(1-(1-(2-(1-(1-(2-(2,6-dioxopiperidin-3-yl)-1,3-dioxoisoindolin-5-yl)azetidine-3-carbonyl)piperidin-4-yl)acetyl)piperidin-4-yl)-1H-pyrazol-4-yl)pyrazine-2-carboxylate], in experiment [1], the “Degradation assay (Degradation %) 1 μM” value is listed as 74.27% and the “Degradation assay (Degradation %) 10 μM” value came out at 72.99%. For the same molecule, in experiment [2] (FADD−/− Jurkat cells), the “Necroptosis inhibition assay (Rescue %) 1 μM” value came to 33.10% and the “Necroptosis inhibition assay (Rescue %) 10 μM” value is 28.25%. In experiment [3], this molecule registered a Kd of 6.8 nM.
As for `Nc1ncc(-c2cnn(C3CCN(C(=O)COC4CCN(C(=O)C5CCN(c6cccc7c6C(=O)N(C6CCC(=O)NC6=O)C7=O)CC5)CC4)CC3)c2)nc1C(=O)O[C@@H](C(=O)Nc1ccc(F)cc1)c1ccccc1` (stereo partly drawn) [TDH-397, (R)-2-((4-fluorophenyl)amino)-2-oxo-1-phenylethyl 3-amino-6-(1-(1-(2-((1-(1-(2-(2,6-dioxopiperidin-3-yl)-1,3-dioxoisoindolin-4-yl)piperidine-4-carbonyl)piperidin-4-yl)oxy)acetyl)piperidin-4-yl)-1H-pyrazol-4-yl)pyrazine-2-carboxylate], in experiment [1], the “Degradation assay (Degradation %) 1 μM” value was found to be 87.39% and the “Degradation assay (Degradation %) 10 μM” value is 79.77%. Also, in experiment [2], the “Necroptosis inhibition assay (Rescue %) 1 μM” value was 53.83% and the “Necroptosis inhibition assay (Rescue %) 10 μM” value was determined as 37.24%. In experiment [3], this molecule returned a Kd of 2.7 nM.
In the case of `Nc1ncc(-c2cnn(C3CCN(C(=O)CC4CCN(C(=O)CCc5cccc6c5CN(C5CCC(=O)NC5=O)C6=O)CC4)CC3)c2)nc1C(=O)O[C@@H](C(=O)Nc1ccc(F)cc1)c1ccccc1` (stereo partly drawn) [TDH-404, (R)-2-((4-fluorophenyl)amino)-2-oxo-1-phenylethyl 3-amino-6-(1-(1-(2-(1-(3-(2-(2,6-dioxopiperidin-3-yl)-1-oxoisoindolin-4-yl)propanoyl)piperidin-4-yl)acetyl)piperidin-4-yl)-1H-pyrazol-4-yl)pyrazine-2-carboxylate], in experiment [1], the “Degradation assay (Degradation %) 1 μM” value came out at 45.30% and the “Degradation assay (Degradation %) 10 μM” value is recorded as 79.08%. Further, in experiment [2] (FADD−/− Jurkat cells), the “Necroptosis inhibition assay (Rescue %) 1 μM” value is 26.83% and the “Necroptosis inhibition assay (Rescue %) 10 μM” value was 49.11%. This molecule registered a Kd in experiment [3] of 1.1 nM.
Turning to `Nc1ncc(-c2cnn(C3CCN(CCC4CCN(C(=O)COc5cccc6c5C(=O)N(C5CCC(=O)NC5=O)C6=O)CC4)CC3)c2)cc1C(=O)OC(C(=O)Nc1ccc(F)cc1)c1ccccc1` (centres unmarked) [TDH-301, 2-((4-fluorophenyl)amino)-2-oxo-1-phenylethyl 2-amino-5-(1-(1-(2-(1-(2-((2-(2,6-dioxopiperidin-3-yl)-1,3-dioxoisoindolin-4-yl)oxy)acetyl)piperidin-4-yl)ethyl)piperidin-4-yl)-1H-pyrazol-4-yl)nicotinate], in experiment [1], the “Degradation assay (Degradation %) 1 μM” value is 76.3% and the “Degradation assay (Degradation %) 10 μM” value amounted to 89.97%. In addition, in experiment [2], the “Necroptosis inhibition assay (Rescue %) 1 μM” value is given as 61.06% and the “Necroptosis inhibition assay (Rescue %) 10 μM” value is given as 26.7%. Further, the Kd in experiment [3] was found to be 2.9 nM.
For `Nc1ncc(-c2cnn(C3CCN(CCCC4CCN(c5ccc6c(c5)C(=O)N(C5CCC(=O)NC5=O)C6=O)CC4)CC3)c2)nc1C(=O)O[C@@H](C(=O)Nc1ccc(F)cc1)c1ccccc1` (stereo partly drawn) [TDH-481, (R)-2-((4-fluorophenyl)amino)-2-oxo-1-phenylethyl 3-amino-6-(1-(1-(3-(1-(2-(2,6-dioxopiperidin-3-yl)-1,3-dioxoisoindolin-5-yl)piperidin-4-yl)propyl)piperidin-4-yl)-1H-pyrazol-4-yl)pyrazine-2-carboxylate], in experiment [1], the “Degradation assay (Degradation %) 1 μM” value was determined as 74.5% and the “Degradation assay (Degradation %) 10 μM” value turned out to be 63.36%. Further, in experiment [2] (FADD−/− Jurkat cells), the “Necroptosis inhibition assay (Rescue %) 1 μM” value was found to be 17.64% and the “Necroptosis inhibition assay (Rescue %) 10 μM” value was 9.86%. This molecule also had a Kd in experiment [3] of 8.8 nM.
`Nc1ncc(-c2cnn(C3CCN(CCCN4CCN(CC5CCN(C(=O)COc6ccc7c(c6)C(=O)N(C6CCC(=O)NC6=O)C7=O)CC5)CC4)CC3)c2)nc1C(=O)O[C@@H](C(=O)Nc1ccc(F)cc1)c1ccccc1` (stereo partly drawn) [TDH-440, (R)-2-((4-fluorophenyl)amino)-2-oxo-1-phenylethyl 3-amino-6-(1-(1-(3-(4-((1-(2-((2-(2,6-dioxopiperidin-3-yl)-1,3-dioxoisoindolin-5-yl)oxy)acetyl)piperidin-4-yl)methyl)piperazin-1-yl)propyl)piperidin-4-yl)-1H-pyrazol-4-yl)pyrazine-2-carboxylate]: in experiment [1], the “Degradation assay (Degradation %) 1 μM” value amounted to 81.51% and the “Degradation assay (Degradation %) 10 μM” value was found to be 84.75%. For the same molecule, in experiment [2] (FADD−/− Jurkat cells), the “Necroptosis inhibition assay (Rescue %) 1 μM” value came to 65.67% and the “Necroptosis inhibition assay (Rescue %) 10 μM” value is listed as 24.42%. The same molecule came in with a Kd in experiment [3] of 0.51 nM.
